What was measured:
[1] = Capture of serotonin by glyoxal, free serotonin by HPLC; type: biochemical; conditions: 2.5 mM serotonin + 25 mM glyoxal + 25 mM test compound, pH 7.4, room temperature, 2 hours; glyoxal alone about 40%
Protocol: (§1) The reaction solutions are incubated at room temperature, and the amount of free serotonin or dopamine, which were not captured by glyoxal, in the reaction solutions was measured by HPLC.
(§2) The negative control contained only 5-HT or DP with a buffer (GO and the test compounds were not added) (test samples 1 and 5), and the positive control contained 5-HT or DP and only GO (none of the test compounds was added) (test samples 2 and 6). […] After incubation, the reaction solutions were diluted 10-fold (pH 7.4) with a 0.25 M phosphate buffer, and analyzed by HPLC. The HPLC analysis was performed with instruments produced by Shimadzu Corporation (system controller: SCL-10A vp, auto injector: SIL-10A, degasser: DGU-12A, liquid chromatograph: LC-10AD vp, UV-Vis detector: SPD-10A vp, and column oven: CTO-10AC vp) under the conditions shown in Table 6. The data analysis was performed with Chromatopac C-R7A Plus.

[2] = Capture of dopamine by glyoxal, free dopamine by HPLC; type: biochemical; conditions: 2.5 mM dopamine + 25 mM glyoxal + 25 mM test compound, pH 7.4, room temperature, 30 minutes; glyoxal alone about 30%
Protocol: as §1, §2

[3] = test system: ASD patients; conditions: cited from earlier work
[4] = Vitamin B1 level in whole blood, serum pyridoxamine and pyridoxal levels and Wernicke's encephalopathy in two test subjects on pyridoxamine medication; type: in vivo, human

## Cc1ncc(CO)c(C=O)c1O [pyridoxal]
[1]
  amount of free serotonin relative to the negative control taken as 100%: rather decreased
[2]
  amount of free dopamine relative to the negative control taken as 100%: no free dopamine became detectable
[3]; 30 mg/kg/day, other research denies this efficacy (NPL 6)
  repetitive patterns of behavior of ASD patients: effective

## Cc1ncc(CO)c(CO)c1O [pyridoxine]
[3]; children with ASD, NPL 8, NPL 9
  side effects (irritability, hyperactivity, sound sensitivity, enuresis): may cause side effects to develop
[3]; children with pervasive developmental disorder who have sensitivity to sound, NPL 7
  verbal intelligence: improvement in verbal intelligence
[3]; children with pervasive developmental disorder, sensitive to sound, expressive language disorder, dyspraxia, high amount, NPL 2
  intelligence quotient (IQ) scores: increases in intelligence quotient (IQ) scores

## CC(=C(CCO)SSCC1CCCO1)N(C=O)Cc1cnc(C)nc1N (stereo in doubt) [Fursultiamine, fursultiamine, reference compound]
[4]; subject ID No. 3, 14 weeks after start (8 weeks after start of thiamine compound 75 mg/day oral)
  symptom of Wernicke's encephalopathy: disappeared
[4]; subject ID No. 3, fursultiamine 75 mg/day oral for 6 weeks with continued pyridoxamine, 12 weeks after start, 28 ng/mL before thiamine
  vitamin B1 level in whole blood: 135 ng/mL
[4]; subject ID No. 6, 11 weeks after start, on thiamine compound
  symptoms of Wernicke's encephalopathy: disappeared
[4]; subject ID No. 6, fursultiamine 300 mg/day intravenous, then 100 to 50 mg/day oral, with pyridoxamine, 11 weeks after start, 25 ng/mL before thiamine
  vitamin B1 level in whole blood: 150 ng/mL
